The values that follow come from patent publication US12428380B2 (PSYLO PTY LTD, priority 2023, dated 2025).

A word on the Emax: it is the maximal effect, on the per cent scale that the assay sets. As usually defined, the EC50 is the concentration giving half of the maximal effect. Read a high EC50 as lower potency in that assay.

Format in all cases: cell-based
One assay deals with T1, 5-HT2B (Homo sapiens, UniProt P41595).
T1 construct: host or cells: CHO-K1
In words: Activation in a similar Ca2+ flux assay at a single concentration, 5-HT2B. To be noted: head prints 10 µM. On the procedure: Activity at 5-HT2A, 5-HT2B and 5-HT2C receptors was determined using a FLIPR Ca2+ flux assay at WuXi AppTec Co. Ltd. (Hong Kong) Discovery Biology Unit according to their standard protocols. Briefly, stably transfected cells expressing the receptor of interest (HEK293 for 5-HT2A and 5-HT2C; CHO-K1 for 5-HT2B) were grown and plated in a 384 well plate and incubated at 37° C. and 5% CO2 overnight. A 250 mM stock solution of probenecid in FLIPR calcium assay buffer (10 mL) was freshly prepared and combined with a fluorescent dye (Fluo-4 Direct) to give a final assay concentration of 2.5 mM. Reference compounds were 4-fold serially diluted and the screening compounds were 3-fold serially diluted in 100% DMSO for 10 points using Agilent Bravo, and 750 nL was added to a 384 well compound plate using Echo along with 30 μL assay buffer. The fluorescent dye was then added to the assay plate along with assay buffer to a final volume of 40 μL. The cell plate was incubated for 50 min at 37° C. and 5% CO2 and placed into the FLIPR Tetra along with the compound plate. 10 μL of references and compounds were then transferred from the compound plate into the cell plate and the fluorescent signal was read.
Activation data are provided in a similar assay tested at a single 10 μM concentration.
(In general: Calcium flux is commonly read through the fluorescence of an indicator in the cells.)

The target in a further assay is T2, 5-HT2C (Homo sapiens, UniProt P28335).
T2 construct: host or cells: HEK293
T2 sequence (P28335 33-458): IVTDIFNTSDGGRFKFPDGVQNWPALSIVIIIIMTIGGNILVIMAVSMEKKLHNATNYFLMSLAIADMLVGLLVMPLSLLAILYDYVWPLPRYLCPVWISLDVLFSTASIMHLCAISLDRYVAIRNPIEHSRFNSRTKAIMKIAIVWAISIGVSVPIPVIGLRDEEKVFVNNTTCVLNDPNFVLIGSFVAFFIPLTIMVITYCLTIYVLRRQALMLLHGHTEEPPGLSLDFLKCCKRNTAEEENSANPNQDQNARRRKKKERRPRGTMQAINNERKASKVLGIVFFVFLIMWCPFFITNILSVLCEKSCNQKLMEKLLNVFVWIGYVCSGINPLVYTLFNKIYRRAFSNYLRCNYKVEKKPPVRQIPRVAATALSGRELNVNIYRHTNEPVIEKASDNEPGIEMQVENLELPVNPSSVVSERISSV
As to the kind of experiment: FLIPR Ca2+ flux functional assay, 5-HT2C (HEK293). To be noted: HEK293 cells expressing 5-HT2C; for Emax: HEK293, agonist activity; for EC50: agonist activity.

The next assay has as its target T3, 5-HT2A (Homo sapiens, UniProt P28223).
T3 construct: host or cells: HEK293
As to the kind of experiment: FLIPR Ca2+ flux functional assay, 5-HT2A (HEK293). To be noted: HEK293 cells expressing 5-HT2A; for Emax: HEK293, agonist activity; for EC50: agonist activity.

T1 sequence (P41595 whole entry, species assumed): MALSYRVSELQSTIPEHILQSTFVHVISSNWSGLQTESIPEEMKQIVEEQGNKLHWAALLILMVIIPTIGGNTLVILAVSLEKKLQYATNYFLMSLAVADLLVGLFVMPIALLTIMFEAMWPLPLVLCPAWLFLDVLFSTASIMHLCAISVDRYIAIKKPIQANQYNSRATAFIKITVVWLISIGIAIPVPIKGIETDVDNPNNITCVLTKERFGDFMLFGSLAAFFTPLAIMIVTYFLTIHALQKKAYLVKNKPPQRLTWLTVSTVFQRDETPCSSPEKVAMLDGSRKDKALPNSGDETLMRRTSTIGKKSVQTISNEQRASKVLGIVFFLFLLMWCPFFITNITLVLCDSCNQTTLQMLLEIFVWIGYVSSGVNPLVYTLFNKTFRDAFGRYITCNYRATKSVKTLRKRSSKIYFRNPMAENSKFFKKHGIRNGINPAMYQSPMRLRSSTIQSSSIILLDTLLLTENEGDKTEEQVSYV
T3 sequence (P28223 whole entry): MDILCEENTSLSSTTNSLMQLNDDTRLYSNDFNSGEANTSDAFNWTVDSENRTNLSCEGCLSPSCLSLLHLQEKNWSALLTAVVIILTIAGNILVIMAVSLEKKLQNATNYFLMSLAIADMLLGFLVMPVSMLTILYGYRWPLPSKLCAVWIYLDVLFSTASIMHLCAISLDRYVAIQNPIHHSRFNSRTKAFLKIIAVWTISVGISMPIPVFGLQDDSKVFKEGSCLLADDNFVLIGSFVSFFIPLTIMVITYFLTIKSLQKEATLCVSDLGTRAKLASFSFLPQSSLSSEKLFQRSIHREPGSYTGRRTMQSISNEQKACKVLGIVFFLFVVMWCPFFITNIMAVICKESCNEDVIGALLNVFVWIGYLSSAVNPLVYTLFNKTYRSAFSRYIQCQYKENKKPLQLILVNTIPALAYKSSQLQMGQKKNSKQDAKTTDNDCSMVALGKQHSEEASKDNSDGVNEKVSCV

On to `CCN(C)CCc1n[nH]c2ccc(F)c(OC)c12` [Example A2, N-ethyl-2-(5-fluoro-4-methoxy-1H-indazol-3-yl)-N-methylethan-1-amine], for which the “5-HT2B % Activation @ 10 µM” value on 5-HT2B turned out to be 57%. At 5-HT2C, this molecule displayed a maximal effect (Emax) of 86% and a 50% effective concentration (EC50) of 15.5 nM. At 5-HT2A, this molecule displayed an Emax of 87% and an EC50 of 31.5 nM.
With `CCN(C)CCc1n[nH]c2c(F)ccc(OC)c12` [Example A45, N-ethyl-2-(7-fluoro-4-methoxy-1H-indazol-3-yl)-N-methylethan-1-amine], at 5-HT2B, the “5-HT2B % Activation @ 10 µM” value came out at 0%. Moreover, on 5-HT2C, the Emax stood at 61% and a half-maximal effect (EC50) was put at 614 nM. At 5-HT2A, this molecule showed a maximal effect (Emax) of 67% and a 50% effective concentration (EC50) of 163 nM.
With `COc1cc2c(CCN3CC(C)C3)n[nH]c2cc1F` [Example A57, 6-fluoro-5-methoxy-3-(2-(3-methylazetidin-1-yl)ethyl)-1H-indazole], the “5-HT2B % Activation @ 10 µM” value at 5-HT2B came out at 0%. In addition, the maximal response (Emax) was determined as 3% at 5-HT2C and 70% at 5-HT2A. For the same molecule, the concentration giving a half-maximal response (EC50) was above 10000 nM at 5-HT2C and 610 nM at 5-HT2A.
In the case of `COc1ccc(F)c2[nH]nc(CCN(C)C(C)C)c12` [Example A46, N-(2-(7-fluoro-4-methoxy-1H-indazol-3-yl)ethyl)-N-methylpropan-2-amine], the “5-HT2B % Activation @ 10 µM” value at 5-HT2B is 0%. On 5-HT2C, this molecule returned an Emax of 0% and an EC50 above 10000 nM. In addition, on 5-HT2A, the Emax came out at 74% and the half-maximal effective concentration (EC50) is 133 nM.
As to `COc1cc(F)c2[nH]nc(CCN(C)C(C)C)c2c1` [Example A52, N-(2-(7-fluoro-5-methoxy-1H-indazol-3-yl)ethyl)-N-methylpropan-2-amine], the “5-HT2B % Activation @ 10 µM” value at 5-HT2B turned out to be 0%. Further, at 5-HT2C, the maximal response (Emax) was determined as 0% and the half-maximal effective concentration (EC50) was above 10000 nM. Moreover, at 5-HT2A, the maximal response (Emax) worked out at 42% and the EC50 came out at 650 nM.
In the case of `COc1ccccc1CNCCc1n[nH]c2cc(F)cc(F)c12` [Example A33, 2-(4,6-difluoro-1H-indazol-3-yl)-N-(2-methoxybenzyl)ethan-1-amine], the “5-HT2B % Activation @ 10 µM” value on 5-HT2B is recorded as 23%. On 5-HT2C, this molecule yielded a maximal response (Emax) of 90% and an EC50 of 159 nM. Also, at 5-HT2A, the Emax worked out at 91% and it took 14.4 nM to reach a half-maximal effect (EC50).
Taken in the same sequence, the figures for `COc1ccc(F)c2[nH]nc(CCN3CCC4CC43)c12` (stereo not shown) [Example A49, 3-(2-(2-azabicyclo[3.1.0]hexan-2-yl)ethyl)-7-fluoro-4-methoxy-1H-indazole] were 7%, 59%, 166 nM, 69% and 216 nM.
For the molecule `CN(C)CCc1n[nH]c2cccc(F)c12` [Example A13, 2-(4-fluoro-1H-indazol-3-yl)-N,N-dimethylethan-1-amine], the “5-HT2B % Activation @ 10 µM” value on 5-HT2B came to 0%. Also, at 5-HT2C, the Emax is 48% and the EC50 is 944 nM. On 5-HT2A, this molecule showed a maximum response (Emax) of 55% and an EC50 of 2050 nM.
Take `CCN(C)CCc1n[nH]c2ccc(F)c(F)c12` [Example A70, 2-(4,5-difluoro-1H-indazol-3-yl)-N-ethyl-N-methylethan-1-amine]: the “5-HT2B % Activation @ 10 µM” value on 5-HT2B is given as 0%. On 5-HT2C, this molecule had a maximal effect (Emax) of 76% and a half-maximal effective concentration (EC50) of 226 nM. Moreover, at 5-HT2A, the maximal response (Emax) is 78% and the concentration for a half-maximal effect (EC50) came to 383 nM.
With `CCN(C)CCc1n[nH]c2c(F)cccc12` [Example A68, N-ethyl-2-(7-fluoro-1H-indazol-3-yl)-N-methylethan-1-amine], at 5-HT2B, the “5-HT2B % Activation @ 10 µM” value turned out to be 0%. Further, the maximum response (Emax) on 5-HT2C came out at 32%; on 5-HT2A, 40%. For the same molecule, the 50% effective concentration (EC50) was 1920 nM at 5-HT2C and 469 nM at 5-HT2A.
Taken in the same sequence, the figures for `CN(C)CCc1n[nH]c2ccc(F)cc12` [Example A17, 2-(5-fluoro-1H-indazol-3-yl)-N,N-dimethylethan-1-amine] were 25%, 80%, 82%, 34 nM and 167 nM.
